# Assay results: patent US20160213003A1, “APPLICATION OF POLYOXOMETALATE IN PREPARATION OF DISINFECTANT FOR STERILIZING AND REMOVING FORMALDEHYDE” (NINGBO YUCHEN ENVIROCLEAN TECH CO., LTD., priority 2013, published 2016)
# Test system: Staphylococcus aureus
# Assay: Kirby-Bauer diffusion detection of sterilizing capability (inhibition zone diameter)
# Format: cell-based
# Conditions: for sterilization effect without oxygen ventilation (diameter, mm): pH 10, no oxygen ventilation
# Method: In catalyst screening, Staphylococcus aureus was used as the microorganisms, and a trypsin soybean agar was used as a culture medium. The material powder to be screened was prepared into a homogeneous mixture solution by pure water in a 3% weight/volume ratio (i.e., 3 g powder/100 mL water), then immersed with a neutral precise filtration filter paper of 5 mm diameter for about 10 seconds, then placed into a Kirby-Bauer diffusion detection plate. A Kirby-Bauer diffusion detection plate was placed in a sealed glass cover, and the air was provided into the glass cover at a speed of about 10 liters per minute. The sterilizing capability of the catalyst was measured by the diameter of the zone without bacterial growth around the filter paper. A variety of polyoxometalates were respectively prepared into a water solution with a 3% mass concentration, and pH was controlled to 10. The sterilizing capability was also detected by Kirby-Bauer diffusion detection method in which Staphylococcus aureus was used as the microorganisms, respectively including no oxygen ventilation and oxygen ventilation. When oxygen was ventilated, the condition for oxygen ventilation was the same, the temperature was room temperature (25° C.) and 37° C. […] Potassium polytungstate (K3[PW12O40]) was respectively prepared into water solutions with mass concentration of 0.5%, 1.0%, 2.0%, 3%, 5%, 10%, and 15%, and the pH were controlled to 10. The sterilizing capability was also detected by Kirby-Bauer diffusion detection method in which Staphylococcus aureus was used as the microorganisms, the condition for oxygen ventilation was the same, and the temperature was room temperature (25° C.) and 37° C. […] Potassium polytungstate (K3[PW12O40]) was respectively prepared into water solutions with a concentration of 3% and pH of 6, 7, 8, 8.5, 9, 9.5, 10, 10.5, 11, 11.5, 12. The sterilizing capability was also detected by Kirby-Bauer diffusion detection method in which Staphylococcus aureus was used as the microorganisms, the condition for oxygen ventilation was the same, and the temperature was room temperature (25° C.) and 37° C.
# [1] = 3% water solution, pH 10, oxygen ventilation, 25° C.
# [2] = 3% water solution, pH 10, oxygen ventilation, 37° C.
substance,measurement,setting,value
Na3[PW12O40],"sterilization effect without oxygen ventilation (diameter, mm)",3% water solution,3 mm
same,"sterilization effect at 25° C. (diameter, mm)",[1],19 mm
same,"sterilization effect at 37° C. (diameter, mm)",[2],18 mm
Potassium polytungstate [K3[PW12O40]],"sterilization effect at 25° C. (diameter, mm)","3% water solution, pH 6, oxygen ventilation, 25° C.",5 mm
same,"sterilization effect at 37° C. (diameter, mm)","3% water solution, pH 6, oxygen ventilation, 37° C.",6 mm
same,"sterilization effect at 25° C. (diameter, mm)","3% water solution, pH 7, oxygen ventilation, 25° C.",6 mm
same,"sterilization effect at 37° C. (diameter, mm)","3% water solution, pH 7, oxygen ventilation, 37° C.",8 mm
same,"sterilization effect at 25° C. (diameter, mm)","3% water solution, pH 8, oxygen ventilation, 25° C.",8 mm
same,"sterilization effect at 37° C. (diameter, mm)","3% water solution, pH 8, oxygen ventilation, 37° C.",11 mm
same,"sterilization effect at 25° C. (diameter, mm)","3% water solution, pH 8.5, oxygen ventilation, 25° C.",14 mm
same,"sterilization effect at 37° C. (diameter, mm)","3% water solution, pH 8.5, oxygen ventilation, 37° C.",15 mm
same,"sterilization effect at 25° C. (diameter, mm)","3% water solution, pH 9, oxygen ventilation, 25° C.",17 mm
same,"sterilization effect at 37° C. (diameter, mm)","3% water solution, pH 9, oxygen ventilation, 37° C.",18 mm
same,"sterilization effect at 25° C. (diameter, mm)","3% water solution, pH 9.5, oxygen ventilation, 25° C.",20 mm
same,"sterilization effect at 37° C. (diameter, mm)","3% water solution, pH 9.5, oxygen ventilation, 37° C.",19 mm
same,"sterilization effect without oxygen ventilation (diameter, mm)",3% water solution,3 mm
same,"sterilization effect at 25° C. (diameter, mm)",[1],19 mm
same,"sterilization effect at 25° C. (diameter, mm)","3% water solution, pH 10, oxygen ventilation, 25° C. (pH series)",19 mm
same,"sterilization effect at 37° C. (diameter, mm)",[2],19 mm
same,"sterilization effect at 37° C. (diameter, mm)","3% water solution, pH 10, oxygen ventilation, 37° C. (pH series)",19 mm
same,"sterilization effect at 25° C. (diameter, mm)","3% water solution, pH 10.5, oxygen ventilation, 25° C.",18 mm
same,"sterilization effect at 37° C. (diameter, mm)","3% water solution, pH 10.5, oxygen ventilation, 37° C.",19 mm
same,"sterilization effect at 25° C. (diameter, mm)","3% water solution, pH 11, oxygen ventilation, 25° C.",20 mm
same,"sterilization effect at 37° C. (diameter, mm)","3% water solution, pH 11, oxygen ventilation, 37° C.",20 mm
same,"sterilization effect at 25° C. (diameter, mm)","3% water solution, pH 11.5, oxygen ventilation, 25° C.",20 mm
same,"sterilization effect at 37° C. (diameter, mm)","3% water solution, pH 11.5, oxygen ventilation, 37° C.",20 mm
same,"sterilization effect at 25° C. (diameter, mm)","3% water solution, pH 12, oxygen ventilation, 25° C.",20 mm
same,"sterilization effect at 37° C. (diameter, mm)","3% water solution, pH 12, oxygen ventilation, 37° C.",20 mm
same,"sterilization effect at 25° C. (diameter, mm)","concentration 0.5%, pH 10, oxygen ventilation, 25° C.",8 mm
same,"sterilization effect at 37° C. (diameter, mm)","concentration 0.5%, pH 10, oxygen ventilation, 37° C.",9 mm
same,"sterilization effect at 25° C. (diameter, mm)","concentration 1.0%, pH 10, oxygen ventilation, 25° C.",11 mm
same,"sterilization effect at 37° C. (diameter, mm)","concentration 1.0%, pH 10, oxygen ventilation, 37° C.",10 mm
same,"sterilization effect at 25° C. (diameter, mm)","concentration 2.0%, pH 10, oxygen ventilation, 25° C.",14 mm
same,"sterilization effect at 37° C. (diameter, mm)","concentration 2.0%, pH 10, oxygen ventilation, 37° C.",16 mm
same,"sterilization effect at 25° C. (diameter, mm)","concentration 3.0%, pH 10, oxygen ventilation, 25° C.",16 mm
same,"sterilization effect at 37° C. (diameter, mm)","concentration 3.0%, pH 10, oxygen ventilation, 37° C.",18 mm
same,"sterilization effect at 25° C. (diameter, mm)","concentration 5%, pH 10, oxygen ventilation, 25° C.",18 mm
same,"sterilization effect at 37° C. (diameter, mm)","concentration 5%, pH 10, oxygen ventilation, 37° C.",19 mm
same,"sterilization effect at 25° C. (diameter, mm)","concentration 10%, pH 10, oxygen ventilation, 25° C.",20 mm
same,"sterilization effect at 37° C. (diameter, mm)","concentration 10%, pH 10, oxygen ventilation, 37° C.",20 mm
same,"sterilization effect at 25° C. (diameter, mm)","concentration 15%, pH 10, oxygen ventilation, 25° C.",19 mm
same,"sterilization effect at 37° C. (diameter, mm)","concentration 15%, pH 10, oxygen ventilation, 37° C.",18 mm
